Reference: patent US6815459B2, “Seleno compounds containing nitrone moiety, their preparation and their therapeutic uses” (Sam-Sung Electronics Co., Ltd., priority 2001, dated 2004)
Values after ≈ are worked out from the molar mass of the structure shown. Read-outs that look alike come from different tables or passages of the source.

What was measured:
[1] = Glutathione peroxidase like activity (NADPH-glutathione reductase coupled system); type: biochemical; details: 50 μM compound; for Rate A340/min(30˜300 sec) / Rate/0.00622 (nmol NADPH/min/mL): 25° C.; for % Ebselen (glutathione peroxidase activity): relative to Ebselen
Protocol: Glutathione peroxidase like activity was determined by the reduction of GSSG formed via the NADPH-glutathione reductase system as an indicator system.
To 350 of 50 mM Tris-HCl(pH 7.6) containing 5 mM of EDTA (assay buffer) are added in the following order:
1) 350 of assay buffer containing 6.4 mM of reduced glutathione (GSH), 640 μM of […] (NADPH), and 1.6 unit/mL of glutathione disulfide reductase (GR)
2) 70 of 800 μM of the test compound which was dissolved in DMSO (i.e., each compound was tested at a final concentration of 50 μM)
3) 350 of 0.007% tert-butyl hydroperoxide which was made by 1/10,000 dilution of tert-butyl hydroperoxide with DDW.
The final reaction volume is 1120.
The reaction was carried out at 25° C. […] The said activity or initial enzymatic rate is proportional to the slope of the variation of absorbance with time.
The catalytic activity for oxygen reduction of the compounds tested corresponds to the rate of consumption of NADPH.
They are expressed in n-moles of NADPH consumed per minute.

[2] = Inhibition of lipid peroxidation of liposome (TBA method); type: biochemical; details: histidine-FeCl3/FeCl2, 37° C., 15 minutes, read-out: Inhibitor Concentration (IC50), lipid peroxidation
Protocol: The compounds of the present invention were tested for antioxidant effect in terms of the repression of the radical chain reaction of a multilayer liposome.
The liposome was prepared as followings: 30 mg of commercially available soybean phosphatidylcholine (PC, Sigma Chemical Co., U.S.A.) was dissolved in 1 mL of ethanol, and 200 of the ethanol/PC solution was added to 10 mL of 10 mM Tris buffer including 50 mM NaCl (pH 7.0) with stirring.
The ability of a compound to inhibit oxidation of the liposome was evaluated as followings: To 400 of the liposomes were added the test compound (in buffer or ethanol) and histidine-FeCl3 (167:33 μM final). Oxidation was initiated by the addition of FeCl2 (33 μM final prepared in nitrogen purged water). The mixtures were shaken at 37° C. for 15 minutes. […]. The aliquots were heated to 100° C. for 20 minutes. After ice cooling, 1 mL of chloroform was added to 1 mL of supernatant from tubes and tubes were centrifuged. The absorbances of the resulting supernatant were measured at 532 nm (see: Table 2).

rats [3] = details: cited from earlier work
[4] = Determination of water solubility (UV, saturated solution); type: physicochemical; details: 10 mM phosphate buffer (pH 7.4), stirred 3 hours, filtered; for solubility at 3 h: read-out: C′ (μM) = A′ (C/A), concentration of the saturated solution (water solubility)
Protocol: With a Beckman DUI® 7500 Spectrophotometer, the UV absorption maximum of each compound was determined by eventually diluting the solution with MeOH as necessary.
A saturated solution of each compound was then prepared by stirring magnetically a small volume of 10 mM phosphate buffer (pH 7.4) in the presence of an excess test compound for 3 hours. The obtained saturated solution was filtered in order to remove solid compound through a Gelman 0.45 m filter and scanned by UV at the wavelength of the absorption maximum previously determined.

mice = details: oral administration; cited from earlier work
[5] = test system: ischemic neuronal degeneration in hippocampus; test: Protection of cell damage by ischemia (in vivo); set-up: species or system Mongolian gerbils (Meriones unguiculatus); details: for Protective effects against ischemic neuronal degeneration: gerbil, 60 mg/kg P.O. 30 minutes after ischemic injury (post-treated), 4 days reperfusion
From the text: Male Mongolian gerbils (Meriones unguiculatus) weighing 80-88 g were used in the present study. […] A midline ventral incision was made in the neck. Both common carotid arteries were isolated, freed of nerve fibers, and occluded using nontraumatic aneurysm clips. Complete interruption of blood flow was confirmed by observing the central artery in eyeballs using ophthalmoscope. After five minutes of occlusion, the aneurysm clips were removed from both common carotid arteries. Restoration of blood flow (reperfusion) was observed directly under the microscope. Sham-operated controls were subjected to the same surgical procedures except that common carotid arteries were not occluded. Body temperature was monitored and maintained at 37° C.±0.5° C. during surgery and during the immediate postoperative period until the animals recovered fully from anesthesia. At the designated reperfusion time (4 days), operated animals and sham animals were killed. Animals were perfused transcardially with phosphate-buffered saline (PBS, pH 7.4) followed by 4% paraformaldehyde in 0.1 M phosphate buffer (pH 7.4) at 4 days (n=7) after surgery. The brains were removed, and postfixed in the same fixative for 4 hours. The brain tissues were cryoprotected by infiltration with 30% sucrose overnight. Cornoy fixed specimens were cut into 30 sections on a cryostat, were sequentially stained by Cresyl violet dye. Images of staining in the hippocampus of each animal were captured with an […]. […] All data obtained from the quantitative data were analyzed using one-way ANOVA to determine statistical significance. Bonferroni's test was used for post-hoc comparisons. P values below 0.05 or 0.01 were considered statistically significant.

rats [6] = test: Acute toxicity LD50 in rats; type: in vivo

CC(C)/[N+]([O-])=C/c1ccc(-n2[se]c3ccccc3c2=O)cc1 [Example 1, 2-[4-(N-isopropyl)nitronyl]phenyl-1,2-benzisoselenazol-3(2H)-one]
Rate A340/min(30˜300 sec) [1]: −0.141 A340/min
Rate/0.00622 (nmol NADPH/min/mL) [1]: 22.67 nmol NADPH/min/mL
% Ebselen (glutathione peroxidase activity) [1]: 119.50%
IC50 [2]: 81.1 µM

O=c1c2ccccc2[se]n1-c1ccccc1 [Ebselen, reference compound]
LD50 (rats [3]; intraperitoneal administration): 580 mg/kg
LD50 (rats [3]; oral administration): ≥ 6,810 mg/kg
C′ (g/L = mg/mL), concentration of the saturated solution (water solubility) [4]: 0.001265 g/L = mg/mL
solubility at 3 h ([4]; aqueous buffer, thermodynamic from solid): 4.62 µM (≈ 1.27 µg/mL)
LD50 (mice): ≥ 6,810 mg/kg
Protective effects against ischemic neuronal degeneration [5]: 59%

CC(C)/[N+]([O-])=C\c1cccc(-n2[se]c3ccccc3c2=O)c1 [Example 2, 2-[3-(N-isopropyl)nitronyl]phenyl-1,2-benzisoselenazol-3(2H)-one]
Rate A340/min(30˜300 sec) [1]: −0.125 A340/min
Rate/0.00622 (nmol NADPH/min/mL) [1]: 20.10 nmol NADPH/min/mL
% Ebselen (glutathione peroxidase activity) [1]: 105.96%
IC50 [2]: 111 µM

CC(C)[N+]([O-])=Cc1csc(-n2[se]c3ccccc3c2=O)n1 [Example 5, 2-[4-(N-isopropyl)nitronyl]thiazol-2-yl-1,2-benzisoselenazol-3(2H)-one]
C′ (g/L = mg/mL), concentration of the saturated solution (water solubility) [4]: 0.0414 g/L = mg/mL
solubility at 3 h [4]: 113.029 µM (≈ 41.4 µg/mL)
Rate A340/min(30˜300 sec) [1]: −0.125 A340/min
Rate/0.00622 (nmol NADPH/min/mL) [1]: 20.13 nmol NADPH/min/mL
% Ebselen (glutathione peroxidase activity) [1]: 106.11%
IC50 [2]: 1.2 µM
LD50 (rats [6]; intraperitoneal administration in rats): ≥ 800 mg/kg
LD50 (rats [6]; oral administration in rats): ≥ 7,000 mg/kg
Neuroprotective effects compared with Ebselen ([5]; gerbil ischemia, 60 mg/kg P.O.): more neuroprotective effects against ischemic neuronal degeneration than Ebselen
Protective effects against ischemic neuronal degeneration [5]: 61%

CC(C)(C)[N+]([O-])=Cc1ccccc1S(=O)(=O)O [S-PBN, reference compound]
IC50 [2]: 25000 µM

CC(C)/[N+]([O-])=C\c1ccc(Cn2[se]c3ccccc3c2=O)cc1 [Example 7, 2-[4-(N-isopropyl)nitronyl]benzyl-1,2-benzisoselenazol-3(2H)-one]
Rate A340/min(30˜300 sec) [1]: −0.084 A340/min
Rate/0.00622 (nmol NADPH/min/mL) [1]: 13.50 nmol NADPH/min/mL
% Ebselen (glutathione peroxidase activity) [1]: 71.17%
IC50 [2]: 246 µM
